# From US6083940A, “Method and composition for effecting contraception in a mammalian male” (SRI International, priority 1998, dated 2000)
# “Also recorded” adds a separate entry of the source.
# Tests used:
# [1] = tested on: SEX ACCESSORY GLANDS AND TESTES OF 22-DAY OLD CASTRATED MALE RATS; experiment: Inhibition of Prostate Growth in Castrated Male Rats (testosterone supplemented); format: in vivo, rat
# Description: Male rats weighing 36 to 38 grams were castrated at the age of 22 days. […] The castrated rats were treated with the steroids once daily for ten consecutive days. On the tenth day following treatment, the rats were sacrificed and autopsied and final seminal vesicle weights and ventral prostate weights determined.
# [2] = biological target: T1, Rat Prostate Androgen Receptor (Rattus norvegicus, UniProt P15207); experiment: Rat Prostate Androgen Receptor Competition Assay; format: binding
# T1 construct: from tissue; host or cells: prostate cytosol (100,000×g supernatant) of gonadectomized male rats
# T1 sequence (P15207 1-902): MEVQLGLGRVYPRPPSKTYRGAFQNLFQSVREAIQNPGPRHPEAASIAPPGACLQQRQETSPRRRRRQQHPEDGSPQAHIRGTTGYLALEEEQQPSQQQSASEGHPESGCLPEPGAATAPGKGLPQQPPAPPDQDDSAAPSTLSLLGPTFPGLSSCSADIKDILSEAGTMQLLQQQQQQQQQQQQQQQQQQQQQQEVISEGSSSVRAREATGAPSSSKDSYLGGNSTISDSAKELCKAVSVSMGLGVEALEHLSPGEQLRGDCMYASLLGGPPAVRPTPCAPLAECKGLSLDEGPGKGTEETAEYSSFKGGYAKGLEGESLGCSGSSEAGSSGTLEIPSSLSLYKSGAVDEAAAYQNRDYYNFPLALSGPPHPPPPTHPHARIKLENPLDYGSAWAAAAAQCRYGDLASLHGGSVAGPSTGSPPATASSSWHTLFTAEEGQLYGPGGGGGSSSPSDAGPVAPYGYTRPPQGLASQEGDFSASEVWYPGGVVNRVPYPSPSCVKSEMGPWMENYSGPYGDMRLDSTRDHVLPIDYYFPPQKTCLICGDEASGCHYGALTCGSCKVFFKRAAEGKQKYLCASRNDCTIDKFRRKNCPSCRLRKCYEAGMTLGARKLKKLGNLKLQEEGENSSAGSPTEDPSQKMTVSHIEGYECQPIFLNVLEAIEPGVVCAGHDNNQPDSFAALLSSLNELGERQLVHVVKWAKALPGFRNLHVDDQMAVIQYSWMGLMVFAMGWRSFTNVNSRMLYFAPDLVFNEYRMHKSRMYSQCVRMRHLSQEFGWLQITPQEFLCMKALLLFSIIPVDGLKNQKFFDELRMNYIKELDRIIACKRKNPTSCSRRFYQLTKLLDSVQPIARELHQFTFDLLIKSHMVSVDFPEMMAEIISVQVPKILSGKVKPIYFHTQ
# Description: Male rats were gonadectomized 20-22 hours before killing. The animals were killed by decapitation and exsanguination. Prostates were kept on ice immediately after removal from the animals. After trimming off the fats, prostates were minced and homogenized in 3 volumes of Tris-HCl buffer (0.02 M, pH 7.4 containing 1.5 mM EDTA and 10% glycerol). The homogenate was centrifuged at 10,000×g for 10 minutes, and the resulting supernatant was centrifuged again at 100,000×g for 60 minutes. The final supernatant contained the androgen-binding receptor.
# The mixture was brought up to 1.0 mL with Tris-HCl buffer used for homogenizing the tissue. The mixture was then incubated at 4° C. for 4 hr., with occasional shaking. At the end of incubation, the receptor-bound androgen was isolated by ammonium sulfate precipitation.
# A 70% saturated ammonium sulfate solution was prepared and its pH is adjusted to 7.4 with aqueous NH3. To 1.0 mL of the labeled cytosol, 1.0 mL of the 70% saturated ammonium sulfate was added dropwise with gentle mixing. The sample was let stand at 0-4° C. for 35 minutes, then centrifuged at 10,000×g for 20 minutes. The precipitate was resuspended in 1.0 mL of the above-mentioned Tris-HCl buffer containing 2 mg of bovine albumin. The androgen-receptor complex was immediately reprecipitated by addition of equal volumes of 70% saturated ammonium sulfate. The sample was allowed to stand at 0-4° C. for another 45 minutes, then centrifuged again as outlined above. The supernatant was decanted and the walls of the tubes thoroughly dried with filter paper. The final precipitated protein was resuspended in 1.0 mL of the same buffer and then transferred quantitatively into a counting vial containing 10 mL of Scintisol for counting.
# [3] = tested on: SEX ACCESSORY GLANDS AND TESTES OF INTACT SPRAGUE-DAWLEY MALE RATS; experiment: Effect of Different Doses of Antiandrogen Compound III-1 on Sex Accessory Glands and Testes of Intact Sprague-Dawley Male Rats; format: in vivo, Sprague-Dawley rat; settings: for Body Weight / Epididymus weight / Seminal Vesicle weight / Ventral Prostate weight / Testes weight: N=4, mean ± SE; for Seminal Vesicle weight: P < .005; for Ventral Prostate weight: P < .01
# Excerpt: The foregoing procedures were used to evaluate the effect of antiandrogen compound III-1 on the sex accessory glands and tests of intact Sprague-Dawley male rats. As may be seen in the Table, […], indicating antagonism on the effect of the testosterone produced.
# ^a Administered subcutaneously once daily for 12 days
# [4] = tested on: rat ventral prostate explant cultures (prostatein C3 mRNA); experiment: Measurement of Prostatein C3 mRNA in rat ventral prostate explant culture
# Description: Testosterone was used as a control. […] Addition of androgens to the medium of rat prostate explant cultures maintains the mRNA for C3 subunit of prostatein, and measurement of either prostatein or its C3 subunit mRNA serves as a sensitive, androgen-responsive marker for the explant system.
# [5] = tested on: 22 day old castrated male rats, seminal vesicle and ventral prostate; experiment: standard Hershberger androgenic assay (agonist androgenic activity); format: in vivo, rat
# [6] = compound 30.0 mg/day + testosterone propionate 0.6 mg/day, ten days, mean ± SE
# [7] = 10 mg/day subcutaneously once daily for 12 days, statistically lower than control
# [8] = 30 mg/day subcutaneously once daily for 12 days, statistically lower than control, P < .001
# [9] = 30 mg/day subcutaneously once daily for 12 days, statistically lower than control
# [10] = III-1 2500 nM with dihydrotestosterone 25 nM, N=2
# [11] = doses of 0.8 mg, 1.6 mg, and 3.2 mg, versus vehicle alone
structure (smiles),measurement,setting,value
"C[C@]12Cc3nonc3C[C@@H]1CC[C@@H]1[C@@H]2CC[C@@]2(C)[C@H]1CC[C@@]21CCCO1 [Compound III-1, 2',3'α-Tetrahydrofuran-2'-spiro-17-(5α-androstan(2,3-c]furazan]",In Vivo Percent Inhibition of Ventral Prostate Weight,[1]; castrated male rats given supplemental testosterone,32.2 ± 9.49%
same,Final BW,[1]; [6],89 ± 5 g
same,Seminal Vesicle weight,[1]; [6],22.5 ± 1.1 mg
same,Ventral Prostate weight,[1]; [6],39.5 ± 4.1 mg
same,inhibition of prostate growth stimulated by exogenous testosterone,"[1]; male castrated rats, in words",inhibit prostate growth stimulated by exogenous testosterone
same,Relative Binding Affinity,"[2]; 5α-DHT set at 100, conc. of 5αDHT at 50% binding inhibition/conc. competitor at 50% binding inhibition × 100",5.8
same,Relative androgen receptor binding affinity,"[2]; Table 3, repeats the values of Table 1",5.8
same,affinity for the rat prostate androgen receptor compared with other known antiandrogens,[2]; in words,"higher affinity for the androgen rat prostate receptor than all of the other known antiandrogens except cyproterone acetate; also recorded: higher affinity for the rat ventral prostate androgen receptor than the steroidal antiandrogen zanoterone (WIN®49,596); also recorded: higher affinity to the androgen receptor than three other nonsteroidal antiandrogen receptor antagonists flutamide, which is available as an antiandrogen in the United States, nilutamide, developed by Roussel in France, and Casodex® (ICI 176,334)"
same,Body Weight,"[3]; 10 mg/day subcutaneously once daily for 12 days, not statistically different from control",295 ± 5 g
same,Epididymus weight,"[3]; 10 mg/day subcutaneously once daily for 12 days, statistically lower than control, P < .001",524 ± 48 mg
same,Seminal Vesicle weight,[3]; [7],225 ± 40 mg
same,Ventral Prostate weight,[3]; [7],170 ± 13 mg
same,Testes weight,"[3]; 10 mg/day subcutaneously once daily for 12 days, statistically lower than control, P < .02",2.552 ± 111 g
same,Epididymus weight,[3]; [8],458 ± 39 mg
same,Testes weight,[3]; [8],1.942 ± .062 g
same,Seminal Vesicle weight,[3]; [9],242 ± 61 mg
same,Ventral Prostate weight,[3]; [9],148 ± 28 mg
same,Body Weight,"[3]; 30 mg/day subcutaneously once daily for 12 days, statistically lower than control, P < .05",277 ± 9 g
same,"magnitude of prostatic growth inhibition, dose dependence","[3]; Table 4, tentative conclusion",appears to be dose dependent
same,"C3/28s × 100, percent of dihydrotestosterone",[4]; [10],62%
same,"C3 m-RNA, percent of dihydrotestosterone",[4]; [10],43%
same,C3 m-RNA,"[4]; III-1 2500 nM with dihydrotestosterone 25 nM, N=2, 30 disks/explant, printed spread ± 1,603","95,130"
same,C3/28s × 100,"[4]; III-1 2500 nM with dihydrotestosterone 25 nM, N=2, printed spread ± 0.8",91.8
same,anti-androgenic activity,"[4]; III-1/dihydrotestosterone formulation, in words",marked anti-androgenic activity
same,dose response curves for androgenic activity,[5]; 22 day old castrated male rats,Very flat dose response curves
same,agonist androgenic activity at the therapeutically effective antiandrogenic dose,"[5]; by extrapolation to 30.0 mg, castrated male rat",essentially devoid of agonist androgenic activity
same,seminal vesicle weight (agonist androgenic activity),[5]; [11],equal to the vehicle alone controls
same,ventral prostate weight (agonist androgenic activity),[5]; [11],equal to the vehicle alone controls
same,effect of drug dosage on prostate weight (FIG. 1),"[5]; increasing dose, in words","fairly steady prostate weight, even at higher doses"
